{
  "source": "ChEMBL document CHEMBL3507680",
  "about": "“University of Dundee, Gates Library screen for HepG2 cell viability”",
  "data": [
    {"test": "Human HepG2 cell viability assay in 384 well format", "type": "toxicity, cell-based", "parameters": "dose 125 nL, time 70.5 hour; concentration not given beside the values", "details": "HepG2 cells, read-out: Inhibition", "units": {"cytotoxicity at 70.5 h": "%"}, "values": [
      {"smiles": "CC(C)c1noc(C2CCN(C(=O)c3cccs3)CC2)n1", "cytotoxicity at 70.5 h": -5.14},
      {"smiles": "CN1CCN(C[C@H]2CC[C@@H](Cc3ccc(CN4CCCC4)cc3)O2)CC1", "cytotoxicity at 70.5 h": -6.45},
      {"smiles": "COc1cc(OC)cc(C2SCC(=O)Nc3ccsc32)c1", "note": "(stereo unspecified)", "cytotoxicity at 70.5 h": -4.19},
      {"smiles": "CN(C)C(=O)N1CCC2(CC1)CCN(Cc1ccccn1)C2=O", "cytotoxicity at 70.5 h": 25.9},
      {"smiles": "CCN1CC[C@@]2(C(=O)N3CCOCC3)CCN(S(=O)(=O)CC)CC[C@@H]12", "cytotoxicity at 70.5 h": 3.2},
      {"smiles": "CN1CCC(NC(=O)NCc2csc(Br)c2)CC1", "cytotoxicity at 70.5 h": -10.7},
      {"smiles": "CC(C)NC(=O)NC[C@H]1OC[C@@H](NCc2ccc(S(C)(=O)=O)cc2)[C@@H]1O", "cytotoxicity at 70.5 h": -3.26},
      {"smiles": "Cn1nc2c(cc1=O)CN(CC(=O)NC1CCCCNC1=O)CC2", "note": "(stereo unspecified)", "cytotoxicity at 70.5 h": 12.7},
      {"smiles": "COCC1CN(Cc2ccoc2)Cc2cn(C)nc21", "note": "(stereo unspecified)", "cytotoxicity at 70.5 h": -7.39},
      {"smiles": "O=C(c1cccc(-n2cccn2)c1)N1CCOC(CCO)C1", "note": "(stereo unspecified)", "cytotoxicity at 70.5 h": 1.32},
      {"smiles": "Cc1ccoc1C(=O)N1CCn2nnc(COc3cccnc3)c2C1", "cytotoxicity at 70.5 h": -11.5},
      {"smiles": "CCn1ncc2c1C(COC)CN(Cc1cccnc1)C2", "note": "(stereo unspecified)", "cytotoxicity at 70.5 h": 21.4},
      {"smiles": "NC(=O)C(Nc1cccc(CO)c1)c1ccc(Br)cc1", "note": "(stereo unspecified)", "cytotoxicity at 70.5 h": 6.7},
      {"smiles": "O=C(N[C@H]1CN(c2nc(CO)cs2)C[C@@H]1C1CC1)C1CCCCC1", "cytotoxicity at 70.5 h": -6.79},
      {"smiles": "Cc1ccccc1-n1cc(CNC(=O)CC2C(=O)NCCN2C)cn1", "note": "(stereo unspecified)", "cytotoxicity at 70.5 h": -1.91},
      {"smiles": "Cc1cnn(C2CCCN(C(=O)c3cnc4ccccc4n3)C2)c1", "note": "(stereo unspecified)", "cytotoxicity at 70.5 h": -7.22},
      {"smiles": "CN1CCCc2cc(CNC(=O)c3ccc(NC4CC4)nc3)ccc21", "cytotoxicity at 70.5 h": -3.79},
      {"smiles": "CCc1nc(C)c(C(=O)NCCn2nc3ccccn3c2=O)s1", "cytotoxicity at 70.5 h": -3.88},
      {"smiles": "CN(Cc1cc(Cl)cc2cccnc12)CC1CCN(CCO)CC1", "cytotoxicity at 70.5 h": -2.37},
      {"smiles": "COC(=O)C(NC(=O)COC1CCCC1)c1cc(F)ccc1F", "note": "(stereo unspecified)", "cytotoxicity at 70.5 h": -11.6},
      {"smiles": "COc1ccc(C2SCC(=O)N2c2ncc(C)s2)cc1", "note": "(stereo unspecified)", "cytotoxicity at 70.5 h": -1.35},
      {"smiles": "N#CCCN1CCC(=Cc2ccccc2)CC1", "cytotoxicity at 70.5 h": -6.02},
      {"smiles": "CCOCCNC(=O)c1ccn(S(=O)(=O)c2ccc(C)cc2)c1", "cytotoxicity at 70.5 h": -2.02},
      {"smiles": "N[C@@H]1CC[C@@H](Nc2nccc(CCC(F)(F)F)n2)C1", "cytotoxicity at 70.5 h": -6.78},
      {"smiles": "Cc1ncc2c(n1)CCCC2NC(=O)c1cnn(Cc2ccccc2)c1", "note": "(stereo unspecified)", "cytotoxicity at 70.5 h": -12.8},
      {"smiles": "CC(C)c1nc(CNC(C(=O)N2CCOCC2)C(C)C)no1", "note": "(stereo unspecified)", "cytotoxicity at 70.5 h": -5.23},
      {"smiles": "COc1coc(CN2CCCC3(CCC(=O)N(CC4CC4)C3)C2)cc1=O", "note": "(stereo unspecified)", "cytotoxicity at 70.5 h": -8.43},
      {"smiles": "COC(=O)CCn1ccc(=O)c2cc(OC)ccc21", "cytotoxicity at 70.5 h": -0.582},
      {"smiles": "CC(=O)N1CCC(c2cncc(Cl)n2)CC1", "cytotoxicity at 70.5 h": 2.82},
      {"smiles": "Cc1cc(C)c(CNC(=O)NCC2CCCN2C)c(=O)[nH]1", "note": "(stereo unspecified)", "cytotoxicity at 70.5 h": 19},
      {"smiles": "Cc1nc(C)n(CC2CN(c3ncnc4[nH]ccc34)CCO2)n1", "note": "(stereo unspecified)", "cytotoxicity at 70.5 h": 1.75},
      {"smiles": "COc1cccc(CCC2CCCN(C(=O)c3cnccn3)C2)c1", "note": "(stereo unspecified)", "cytotoxicity at 70.5 h": -7.12},
      {"smiles": "COC(C)c1nc(CN2CCNCC2)cs1", "note": "(stereo unspecified)", "cytotoxicity at 70.5 h": 0.111},
      {"smiles": "CNC(=O)C1Cn2ccnc2C2(CCN(CCF)CC2)O1", "note": "(stereo unspecified)", "cytotoxicity at 70.5 h": -13.9},
      {"smiles": "CC(C)(C)NC(=O)CN1CCCN(Cc2ccc(C#N)cc2)CC1", "cytotoxicity at 70.5 h": -6.11},
      {"smiles": "CCOC1COC2(CCN(Cc3cccc(F)c3)CC2)C1", "note": "(stereo unspecified)", "cytotoxicity at 70.5 h": -12},
      {"smiles": "CC(C)C(=O)N1CCCC2(CCCN2Cc2cccnc2)C1", "note": "(stereo unspecified)", "cytotoxicity at 70.5 h": 1.65},
      {"smiles": "CCc1nnc(C(C)N2CCC(NC(=O)C3CCCCC3)CC2)o1", "note": "(stereo unspecified)", "cytotoxicity at 70.5 h": -7.39},
      {"smiles": "O=C(CC1CCCC1)N1C[C@@H]2C[C@H]1CN2", "cytotoxicity at 70.5 h": -3.6},
      {"smiles": "Cc1occc1C(=O)N(CCN(C)C)Cc1ccccn1", "cytotoxicity at 70.5 h": 15.9},
      {"smiles": "Cc1ccc(C(=O)N2CCC3(CCN3Cc3ccc(F)cc3)C2)cn1", "note": "(stereo unspecified)", "cytotoxicity at 70.5 h": -8.15},
      {"smiles": "O=C(c1ccoc1)N1CC[C@@H]2O[C@@H](COCc3ccccn3)CC[C@@H]21", "cytotoxicity at 70.5 h": -3.1},
      {"smiles": "Cc1noc(C2CN(CC(=O)NCC3CCCO3)C2)n1", "note": "(stereo unspecified)", "cytotoxicity at 70.5 h": -3.62},
      {"smiles": "O=C(c1ccoc1)N1CCCC2(CCC(=O)N2Cc2ccncc2)C1", "note": "(stereo unspecified)", "cytotoxicity at 70.5 h": -1.87},
      {"smiles": "CC(C)CN1CC(c2nc(-c3cccc(F)c3)c[nH]2)CC1=O", "note": "(stereo unspecified)", "cytotoxicity at 70.5 h": -7.31},
      {"smiles": "Cc1nc(C(NC(=O)C2CCCC2)c2ccccc2F)no1", "note": "(stereo unspecified)", "cytotoxicity at 70.5 h": -9.04}
    ]}
  ]
}
